Experimental data as given in patent publication US9926297B2, “Bicyclic AZA compounds as muscarinic M1 receptor and/or M4 receptor agonists” (Heptares Therapeutics Limited, priority 2014, dated 2018).
Where two headings read alike, the source gives them in different places.

Columns and labels:
[1] = target: T1, human muscarinic M2 receptor (Homo sapiens, UniProt P08172); test: Alphascreen Surefire phospho-ERK1/2 functional assay, M2; conditions: for Emax: CHO
T1 sequence (P08172 1-466): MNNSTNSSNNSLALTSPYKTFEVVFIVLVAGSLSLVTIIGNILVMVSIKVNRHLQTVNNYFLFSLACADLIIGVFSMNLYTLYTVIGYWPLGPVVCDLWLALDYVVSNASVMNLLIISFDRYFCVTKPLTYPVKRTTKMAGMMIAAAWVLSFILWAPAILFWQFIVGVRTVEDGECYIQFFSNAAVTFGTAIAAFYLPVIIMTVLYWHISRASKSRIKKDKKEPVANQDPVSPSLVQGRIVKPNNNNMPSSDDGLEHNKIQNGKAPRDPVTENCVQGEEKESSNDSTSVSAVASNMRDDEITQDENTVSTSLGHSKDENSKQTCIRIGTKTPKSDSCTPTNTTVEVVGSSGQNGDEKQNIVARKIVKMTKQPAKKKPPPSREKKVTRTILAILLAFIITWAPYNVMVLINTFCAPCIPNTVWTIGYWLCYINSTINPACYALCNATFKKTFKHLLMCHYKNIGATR
Method: CHO cells stably expressing the human muscarinic M1, M2, M3 or M4 receptor were plated (25K/well) onto 96-well tissue culture plates in MEM-alpha+10% dialysed FBS. Once adhered, cells were serum-starved overnight. Agonist stimulation was performed by the addition of 5 μL agonist to the cells for 5 min (37° C.). Media was removed and 50 μL of lysis buffer added. After 15 min, a 4 μL sample was transferred to 384-well plate and 7 μL of detection mixture added. Plates were incubated for 2 h with gentle agitation in the dark and then read on a PHERAstar plate reader.
pEC50 and Emax figures were calculated from the resulting data for each receptor subtype.

[2] = system: scopolamine-induced amnesia; test: Passive avoidance task, scopolamine-induced amnesia; assay type: in vivo
Method: Studies were carried out as described previously by Foley et al., (2004) Neuropsychopharmacology. In the passive avoidance task scopolamine administration (1 mg/kg, i.p.) at 6 hours following training rendered animals amnesic of the paradigm. A dose range of 3, 10, and 30 mg/kg (po) free base, administered 90 minutes prior to the training period via oral gavage, was examined.

[3] = target: T2, human muscarinic M1 receptor (Homo sapiens, UniProt P11229); test: Alphascreen Surefire phospho-ERK1/2 functional assay, M1; assay type: cell-based; conditions: for EC50: CHO cells stably expressing human M1, phospho-ERK1/2, * = variable results, read-out: pEC50 M1 (converted); for Emax: CHO
T2 sequence (P11229 1-460): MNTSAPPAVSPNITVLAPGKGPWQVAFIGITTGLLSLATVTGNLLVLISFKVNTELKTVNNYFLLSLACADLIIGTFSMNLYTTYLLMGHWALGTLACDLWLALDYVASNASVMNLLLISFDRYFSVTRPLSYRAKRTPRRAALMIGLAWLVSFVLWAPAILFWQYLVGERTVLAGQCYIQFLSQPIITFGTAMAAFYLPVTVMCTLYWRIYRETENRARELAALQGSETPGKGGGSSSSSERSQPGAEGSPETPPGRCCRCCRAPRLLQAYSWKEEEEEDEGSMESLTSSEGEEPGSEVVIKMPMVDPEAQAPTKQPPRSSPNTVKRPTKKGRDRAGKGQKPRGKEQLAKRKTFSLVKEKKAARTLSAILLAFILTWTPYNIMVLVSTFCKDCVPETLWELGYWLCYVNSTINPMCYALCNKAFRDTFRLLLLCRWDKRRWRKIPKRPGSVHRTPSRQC

[4] = target: T3, human muscarinic M4 receptor (Homo sapiens, UniProt P08173); test: Alphascreen Surefire phospho-ERK1/2 functional assay, M4; assay type: cell-based; conditions: for EC50: CHO cells stably expressing human M4, phospho-ERK1/2, * = variable results, read-out: pEC50 M4 (converted); for Emax: CHO
T3 construct: expressed in transfected cells
T3 sequence (P08173 1-479): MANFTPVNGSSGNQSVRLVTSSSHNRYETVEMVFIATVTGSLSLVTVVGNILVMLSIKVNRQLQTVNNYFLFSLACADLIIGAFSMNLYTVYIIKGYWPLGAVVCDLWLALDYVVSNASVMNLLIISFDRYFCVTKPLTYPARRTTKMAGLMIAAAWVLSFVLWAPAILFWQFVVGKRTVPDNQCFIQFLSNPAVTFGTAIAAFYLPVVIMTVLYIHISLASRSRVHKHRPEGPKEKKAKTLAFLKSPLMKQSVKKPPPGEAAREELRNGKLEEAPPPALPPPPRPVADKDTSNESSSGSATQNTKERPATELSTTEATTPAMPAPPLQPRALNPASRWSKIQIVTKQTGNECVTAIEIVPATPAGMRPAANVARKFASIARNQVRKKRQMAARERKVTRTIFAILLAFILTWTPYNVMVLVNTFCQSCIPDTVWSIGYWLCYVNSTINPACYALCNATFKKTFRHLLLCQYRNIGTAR

[5] = target: human muscarinic M3 receptor (Homo sapiens, UniProt P20309); test: Alphascreen Surefire phospho-ERK1/2 functional assay, M3; conditions: for Emax: CHO; for EC50: pEC50 M3, CHO cells stably expressing human M3, phospho-ERK1/2, * = variable results
human muscarinic M3 receptor, sequence (P20309 whole entry): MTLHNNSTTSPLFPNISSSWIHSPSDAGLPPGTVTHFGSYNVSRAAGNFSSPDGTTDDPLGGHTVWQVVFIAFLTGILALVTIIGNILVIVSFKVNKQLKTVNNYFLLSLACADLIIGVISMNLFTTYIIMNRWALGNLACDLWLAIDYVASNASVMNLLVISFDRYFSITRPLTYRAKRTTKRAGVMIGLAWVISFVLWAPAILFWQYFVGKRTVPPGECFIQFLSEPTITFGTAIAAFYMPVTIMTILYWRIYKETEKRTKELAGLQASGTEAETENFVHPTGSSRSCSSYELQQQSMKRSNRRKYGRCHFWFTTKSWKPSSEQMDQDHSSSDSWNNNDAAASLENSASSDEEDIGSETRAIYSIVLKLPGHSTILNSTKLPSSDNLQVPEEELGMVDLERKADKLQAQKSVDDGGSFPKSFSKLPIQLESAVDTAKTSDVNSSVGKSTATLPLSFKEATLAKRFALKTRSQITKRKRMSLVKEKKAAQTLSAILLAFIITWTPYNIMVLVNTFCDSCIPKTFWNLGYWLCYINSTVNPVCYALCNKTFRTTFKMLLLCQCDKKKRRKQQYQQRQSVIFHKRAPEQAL

[6] = read-out: % Emax cf. ACh, M2, CHO cells stably expressing human M2, relative to ACh
[7] = read-out: % Emax cf. ACh, M1, CHO cells stably expressing human M1, relative to ACh
[8] = read-out: % Emax cf. ACh, M4, CHO cells stably expressing human M4, relative to ACh
[9] = read-out: % Emax cf. ACh, M3, CHO cells stably expressing human M3, relative to ACh

Structure (SMILES)	Emax ([1]; read-out: % Emax cf. ACh, M2)	reversal of scopolamine-induced amnesia ([2]; 3, 10 and 30 mg/kg po)	ED50 ([2]; po, 90 minutes prior to training, scopolamine 1 mg/kg i.p. 6 hours following training, read-out: approximate ED50, reversal of scopolamine-induced amnesia)	EC50 [3]	Emax ([3]; read-out: % Emax cf. ACh, M1)	EC50 [4]	Emax ([4]; read-out: % Emax cf. ACh, M4)	Emax ([5]; read-out: % Emax cf. ACh, M3)	EC50 [5]	EC50 [1]	Emax [1, 6]	Emax [3, 7]	Emax [4, 8]	Emax [5, 9]
CCOC(=O)N1CCC2(CC(N3CCC(n4cccn4)CC3)C2)C1 (single isomer, unassigned) [1-33 Isomer 2, ethyl 2-[4-(1H-pyrazol-1-yl)piperidin-1-yl]-6-azaspira[3.4]octane-6-carboxylate]	49%	reverse scopolamine-induced amnesia of the paradigm in a dose-dependent manner	~10 mg/kg	25.1 nM	11%	3.98 nM	118%	7%	> 20000 nM					
CCOC(=O)N1CCC2(CC(N3CCC(N4CC(F)(F)C[C@@H]4C(N)=O)CC3)C2)C1 (single isomer, unassigned) [2-90 Isomer 2]				158 nM		12.6 nM			> 20000 nM	> 20000 nM	4%	54%	53%	1%
CCOC(=O)N1CCC2(CC(N3CCC(c4nccc(N)n4)CC3)C2)C1 (single isomer, unassigned) [3-9 Isomer 2, ethyl 2-[4-(4-aminopyrimidin-2-yl)piperidin-1-yl]-6-azaspiro[3.4]octane-6-carboxylate]				251 nM		25.1 nM			> 20000 nM	> 20000 nM	2%	103%	96%	4%
CCOC(=O)N1CCC2(CC(N3CCC(N4CC(F)(F)C[C@@H]4C(=O)NOC)CC3)C2)C1 (single isomer, unassigned) [2-91 Isomer 2]				501 nM		79.4 nM			> 20000 nM	> 20000 nM	12%	40%	67%	10%
COC(=O)N1CCC2(CC(N3CCC([C@@H]4CCCN4C(=O)NCC(F)(F)F)CC3)C2)C1 (single isomer, unassigned) [2-40 Isomer 2]				794 nM		31.6 nM			> 20000 nM	> 20000 nM	2%	78%	90%	1%
CCOC(=O)N1CCC2(CC(N3CCC(c4ccnn4CC)CC3)C2)C1 (single isomer, unassigned) [1-47 Isomer 2, ethyl 2-[4-(1-ethyl-1H-pyrazol-5-yl)piperidin-1-yl]-6-azaspiro[3.4]octane-6-carboxylate]				> 20000 nM		15.8 nM			> 20000 nM	≥ 20000 nM	82%	7%	81%	19%
